According to ChEMBL document CHEMBL4834434, “Discovery of Novel and Potent N-Methyl-d-aspartate Receptor Positive Allosteric Modulators with Antidepressant-like Activity in Rodent Models” (J Med Chem, 2021):
pEC50: −log10 of the molar value. Active and inactive are the calls of the source. No cut-off for these calls is given here.

How the values were obtained:
Mus musculus [1] = assay: Antidepressant activity in icv dosed C57BL/6N mouse assessed as decrease in immobility time measured after 36 mins; type: functional, organism-based
[2] = target: Ionotropic glutamate receptor NMDA 1/2D (Homo sapiens) (UniProt Q05586+O15399); assay: Negative allosteric modulation of GluN1/GluN2D (unknown origin) expressed in HEK293 cells assessed as inhibition of current induced by […] and glycine at 30 uM by whole-cell patch clamp method; type: cell-based; conditions: filed as negative allosteric modulator
[3] = Brain to blood partition coefficient of the compound; type: physicochemical, tissue-based; conditions: read-out: logBB (converted)
[4] = target: T1, Glutamate NMDA receptor (Mus musculus) (UniProt P35436+Q91ZU9+Q03391+P35438+Q01097+Q01098+A2AIR5); assay: Positive allosteric modulation of C57BL/6 mouse NMDA receptor assessed as fold change in compound potentiated NMDA-induced current relative to NMDA current alone at 30 uM measured after 15 to 30 mins by patch-clamp method; type: tissue-based; conditions: Brain, filed as positive allosteric modulator, time 15-30 min
[5] = target: Ionotropic glutamate receptor NMDA 1/2C (Homo sapiens) (UniProt Q05586+Q14957); assay: Positive allosteric modulation of GluN1/GluN2C (unknown origin) expressed in HEK293 cells assessed as enhancement of current induced by […] and glycine at 30 uM by whole-cell patch clamp method; type: cell-based
[6] = target: Glutamate NMDA receptor; GRIN1/GRIN2B (Homo sapiens) (UniProt Q05586+Q13224); assay: Positive allosteric modulation of GluN1/GluN2B (unknown origin) expressed in HEK293 cells assessed as enhancement of current induced by […] and glycine at 30 uM by whole-cell patch clamp method; type: cell-based
[7] = target: T1, Glutamate NMDA receptor (Mus musculus); assay: Positive allosteric modulation of C57BL/6 mouse NMDA receptor assessed as fold change in compound potentiated NMDA-induced current relative to NMDA current alone in presence of saturating glutamate by patch-clamp method; type: tissue-based; conditions: Brain, filed as positive allosteric modulator
Glutamate NMDA receptor [8] = assay: Positive allosteric modulation of C57BL/6 mouse NMDA receptor assessed as potentiation of NMDA-induced current in presence of saturating glutamate by patch-clamp method; type: tissue-based, Brain
[9] = target: T1, Glutamate NMDA receptor (Mus musculus); assay: Positive allosteric modulation of ICR mouse primary cortical neuron NMDA receptor assessed as potentiation of NMDA-induced current at 10 uM in presence of 30 uM exogenous glycine by whole-cell patch clamp method; type: tissue-based; conditions: Brain
[10] = target: T1, Glutamate NMDA receptor (Mus musculus); assay: Positive allosteric modulation of ICR mouse primary cortical neuron NMDA receptor assessed as potentiation of NMDA-induced current at 10 uM in absence of exogenous glycine/D-serine by whole-cell patch clamp method; type: tissue-based
[11] = target: T2, Glutamate NMDA receptor; GRIN1/GRIN2A (Homo sapiens) (UniProt Q05586+Q12879); assay: Effect on GluN1/GluN2A (unknown origin) expressed in HEK293 cells assessed as enhancement of glycine-induced current at 30 uM by whole-cell patch clamp method; type: cell-based
Mus musculus [12] = assay: Antidepressant activity in icv dosed CSDS-induced C57BL/6N mouse model assessed as reversal of reduction in CSDS-induced social interaction administered for 10 days by social interaction test; type: functional, organism-based; conditions: time 10.0 day
Neuron [13] = assay: Effect on GABA receptor in ICR mouse hippocampal neuron assessed as increase in GABA-induced current at 30 uM; type: tissue-based
[14] = target: T1, Glutamate NMDA receptor (Mus musculus); assay: Positive allosteric modulation of ICR mouse primary cortical neuron NMDA receptor assessed as potentiation of NMDA-induced maximum current by whole-cell patch clamp method; type: tissue-based; conditions: Brain
Glutamate NMDA receptor [15] = assay: Positive allosteric modulation of ICR mouse primary cortical neuron NMDA receptor assessed as potentiation of glycine-induced current in presence of 100 uM NMDA by whole-cell patch clamp method; type: tissue-based, Brain
[16] = target: T2, Glutamate NMDA receptor; GRIN1/GRIN2A (Homo sapiens); assay: Positive allosteric modulation of GluN1/GluN2A (unknown origin) expressed in HEK293 cells assessed as enhancement of current induced by […] and glycine at 30 uM by whole-cell patch clamp method; type: cell-based; conditions: filed as positive allosteric modulator
[17] = target: T1, Glutamate NMDA receptor (Mus musculus); assay: Positive allosteric modulation of C57BL/6 mouse NMDA receptor assessed as potentiation of NMDA-induced current by measuring peak current amplitude at 30 uM measured after 15 to 30 mins by patch-clamp method (reference value: 54.6 +/- 4.6 pA); type: tissue-based; conditions: Brain, filed as positive allosteric modulator, time 15-30 min
[18] = target: T2, Glutamate NMDA receptor; GRIN1/GRIN2A (Homo sapiens); assay: Effect on GluN1/GluN2A (unknown origin) expressed in HEK293 cells assessed as enhancement of NMDA-induced current at 30 uM by whole-cell patch clamp method; type: cell-based
Glutamate NMDA receptor [19] = assay: Positive allosteric modulation of ICR mouse primary cortical neuron NMDA receptor assessed as potentiation of NMDA-induced current in presence of 30 uM exogenous glycine by whole-cell patch clamp method (reference value: 23.9 +/- 1.3 uM); type: tissue-based, Brain
Neuron [20] = assay: Effect on AMPA receptor in ICR mouse hippocampal neuron assessed as increase in AMPA-induced current at 30 uM; type: tissue-based

CNCCC(Oc1ccc(C(F)(F)F)cc1)c1ccccc1 (stereo unspecified)
Activity (Mus musculus [1]): Active

Cc1cc(C)n(Cc2ccc(C(=O)Nc3ccc(Br)cc3C)o2)n1
Activity [2]: Active
Kp [3]: 0.661
fold change (FC) [4]: 32
Activity [5]: inactive
Activity [6]: inactive
fold change (FC) [7]: 3.8
pEC50 (Glutamate NMDA receptor [8]): 5.06
Activity [9]: inactive
Activity [10]: inactive
Activity [11]: inactive
Activity (Mus musculus [12]): Active
Activity (Neuron [13]): inactive
Activity (Mus musculus [1]): Active
Activity [14]: inactive
pEC50 (Glutamate NMDA receptor [15]): 4.93
Activity [16]: Active
Activity [17]: 1180 pA
Activity [18]: inactive
pEC50 (Glutamate NMDA receptor [19]): 4.87
Activity (Neuron [20]): inactive
